Measurements: patent publication US10584115B2, “Substituted pyridine and pyrazine BMI-1 inhibitors” (PTC Therapeutics, Inc., priority 2013, dated 2020)

These molecules were tested on Bmi-1 protein (assay: Sandwich ELISA Assay (Bmi-1 protein level in HT-1080 cells after compound treatment)). Details: Table 1, Bmi-1 sandwich ELISA, read-out: ELISA EC50 value for Bmi-1 protein.
Format: cell-based
Outline: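 Sandwich ELISA quantified Bmi-1 protein against recombinant standard (125–8000 pg/mL), with lysates captured overnight at 4 °C and signal by HRP/TMB at 450 nm (570 nm reference). Lysates came from HT-1080 cells incubated 40–48 h with test compounds in 0.5% DMSO.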
With `Cc1nc2ccc(F)cc2n1-c1cccc(Nc2ccc(OC(F)F)cc2)n1` [Cpd 584, N-[4-(difluoromethoxy)phenyl]-6-(6-fluoro-2-methyl-1H-benzimidazol-1-yl)pyridin-2-amine] the EC50 was 0.01 to 0.1 µM. In the case of `Cc1nc2ccc(F)cc2n1-c1cccc(Nc2ccc(OC(F)(F)F)cc2)n1` [Cpd 585, 6-(6-fluoro-2-methyl-1H-benzimidazol-1-yl)-N-[4-(trifluoromethoxy)phenyl]pyridin-2-amine], the EC50 is reported as 0.1 to 3 µM. Work on `COc1ccc(Nc2cccc(-n3c(C)nc4ccc(F)cc43)n2)cc1` [Cpd 586, 6-(6-fluoro-2-methyl-1H-benzimidazol-1-yl)-N-(4-methoxyphenyl)pyridin-2-amine] yielded an EC50 of 0.001 to 0.01 µM. `Cc1ccc(Nc2cccc(-n3c(C)nc4ccc(F)cc43)n2)cc1` [Cpd 587, 6-(6-fluoro-2-methyl-1H-benzimidazol-1-yl)-N-(4-methylphenyl)pyridin-2-amine] showed an EC50 of 0.001 to 0.01 µM. With `Cc1nc2ccccc2n1-c1cccc(Nc2ccc(Cl)cc2)n1` [Cpd 606, N-(4-chlorophenyl)-6-(2-methyl-1H-benzimidazol-1-yl)pyridin-2-amine] the EC50 was 0.1 to 3 µM. `Cc1nc2ccc(F)cc2n1-c1cccc(Nc2ccc(C(F)(F)F)cc2)n1` [Cpd 607, 6-(6-fluoro-2-methyl-1H-benzimidazol-1-yl)-N-[4-(trifluoromethyl)phenyl]pyridin-2-amine] was tested, and the EC50 was 0.01 to 0.1 µM. Molecule `Cc1nc2ccc(F)cc2n1-c1cccc(Nc2ccc(Cl)cc2)n1` [Cpd 608, N-(4-chlorophenyl)-6-(6-fluoro-2-methyl-1H-benzimidazol-1-yl)pyridin-2-amine] has an EC50 of 0.01 to 0.1 µM. `Cc1nc2ccc(F)cc2n1-c1cccc(Nc2ccc(C#N)cc2)n1` [Cpd 609, 4-{[6-(6-fluoro-2-methyl-1H-benzimidazol-1-yl)pyridin-2-yl]amino}benzonitrile] showed an EC50 of 0.1 to 3 µM. `COC(=O)c1ccc(Nc2cccc(-n3c(C)nc4ccc(F)cc43)n2)cc1` [Cpd 610, methyl 4-{[6-(6-fluoro-2-methyl-1H-benzimidazol-1-yl)pyridin-2-yl]amino}benzoate] showed an EC50 of 0.01 to 0.1 µM. `Cc1ccc(Nc2cc(C#N)cc(-n3c(C)nc4ccccc43)n2)cc1` [Cpd 634, 2-(2-methyl-1H-benzimidazol-1-yl)-6-[(4-methylphenyl)amino]pyridine-4-carbonitrile] showed an EC50 of 0.01 to 0.1 µM. With `COc1ccc2nc(C(F)(F)F)c(-c3cncc(Nc4ccccc4)n3)n2c1` [Cpd 678, 6-[6-methoxy-2-(trifluoromethyl)imidazo[1,2-a]pyridin-3-yl]-N-phenylpyrazin-2-amine] the EC50 was 0.01 to 0.1 µM. `COc1ccc2nc(C(F)(F)F)c(-c3cncc(Nc4ccc(Cl)cc4)n3)n2c1` [Cpd 679, N-(4-chlorophenyl)-6-[6-methoxy-2-(trifluoromethyl)imidazo[1,2-a]pyridin-3-yl]pyrazin-2-amine] was tested, and the EC50 was 0.01 to 0.1 µM. With `COc1ccc2nc(C(F)(F)F)c(-c3cncc(Nc4ccc(Br)cc4)n3)n2c1` [Cpd 680, N-(4-bromophenyl)-6-[6-methoxy-2-(trifluoromethyl)imidazo[1,2-a]pyridin-3-yl]pyrazin-2-amine] the EC50 was 0.01 to 0.1 µM. In the case of `COc1ccc2nc(C(F)(F)F)c(-c3cncc(Nc4ccc(F)cc4)n3)n2c1` [Cpd 681, N-(4-fluorophenyl)-6-[6-methoxy-2-(trifluoromethyl)imidazo[1,2-a]pyridin-3-yl]pyrazin-2-amine], the EC50 is reported as 0.1 to 3 µM. `COc1ccc2nc(C(F)(F)F)c(-c3cncc(Nc4ccc(C)cc4)n3)n2c1` [Cpd 682, 6-[6-methoxy-2-(trifluoromethyl)imidazo[1,2-a]pyridin-3-yl]-N-(4-methylphenyl)pyrazin-2-amine] gave an EC50 of 0.1 to 3 µM. In the case of `COc1ccc(Nc2cncc(-n3cnc4ccccc43)n2)cc1` [compound 1, 6-(1H-benzimidazol-1-yl)-N-(4-methoxyphenyl)pyrazin-2-amine], the EC50 is reported as 0.01 to 0.1 µM. With `Ic1ccc(Nc2cncc(-n3cnc4ccccc43)n2)cc1` [compound 2, 6-(1H-benzimidazol-1-yl)-N-(4-iodophenyl)pyrazin-2-amine] the EC50 was 0.01 to 0.1 µM. `COc1ccc(Nc2cncc(-n3c(C)nc4ccccc43)n2)cc1F` [compound 12, N-(3-fluoro-4-methoxyphenyl)-6-(2-methyl-1H-benzimidazol-1-yl)pyrazin-2-amine] gave an EC50 of under 0.001 µM. `Cc1nc2ccccc2n1-c1cncc(Nc2ccc(C(F)(F)F)cc2)n1` [compound 13, 6-(2-methyl-1H-benzimidazol-1-yl)-N-[4-(trifluoromethyl)phenyl]pyrazin-2-amine] was tested, and the EC50 was 0.01 to 0.1 µM. `FC(F)(F)c1ccc(Nc2cncc(-n3c(C(F)(F)F)nc4ccccc43)n2)cc1` [compound 14, 6-[2-(trifluoromethyl)-1H-benzimidazol-1-yl]-N-[4-(trifluoromethyl)phenyl]pyrazin-2-amine] was tested, and the EC50 was 0.1 to 3 µM. Work on `FC(F)(F)c1ccc(Nc2cncc(-c3cccc4cc(C(F)(F)F)nn34)n2)cc1` [compound 15, N-[4-(trifluoromethyl)phenyl]-6-[2-(trifluoromethyl)pyrazolo[1,5-a]pyridin-7-yl]pyrazin-2-amine] yielded an EC50 of 0.01 to 0.1 µM. `Cc1nc2ccccc2n1-c1cncc(Nc2ccc(OC(F)(F)F)cc2)n1` [compound 19, 6-(2-methyl-1H-benzimidazol-1-yl)-N-[4-(trifluoromethoxy)phenyl]pyrazin-2-amine] gave an EC50 of 0.1 to 3 µM. Molecule `Cc1nc2ccccc2n1-c1cncc(Nc2ccc(Cl)cc2)n1` [compound 20, N-(4-chlorophenyl)-6-(2-methyl-1H-benzimidazol-1-yl)pyrazin-2-amine] has an EC50 of 0.01 to 0.1 µM. `Cc1nc2ccccc2n1-c1cncc(Nc2ccc(OC(F)F)cc2)n1` [compound 21, N-[4-(difluoromethoxy)phenyl]-6-(2-methyl-1H-benzimidazol-1-yl)pyrazin-2-amine] was tested, and the EC50 was 0.001 to 0.01 µM. Molecule `COc1ccc(Nc2cncc(-n3c(C)nc4ccccc43)n2)cc1Cl` [compound 28, N-(3-chloro-4-methoxyphenyl)-6-(2-methyl-1H-benzimidazol-1-yl)pyrazin-2-amine] has an EC50 of 0.001 to 0.01 µM. In the case of `COc1ccc(Nc2nc(-c3c(C(F)(F)F)nc4ccccn34)ccc2C#N)cc1` [compound 41, 2-[(4-methoxyphenyl)amino]-6-[2-(trifluoromethyl)imidazo[1,2-a]pyridin-3-yl]pyridine-3-carbonitrile], the EC50 is reported as 0.1 to 3 µM. In the case of `COc1ccc(Nc2cncc(-n3c(C(F)(F)F)nc4ccccc43)n2)cc1` [compound 43, N-(4-methoxyphenyl)-6-[2-(trifluoromethyl)-1H-benzimidazol-1-yl]pyrazin-2-amine], the EC50 is reported as 0.001 to 0.01 µM. Work on `FC(F)Oc1ccc(Nc2cncc(-n3c(C(F)(F)F)nc4ccccc43)n2)cc1` [compound 44, N-[4-(difluoromethoxy)phenyl]-6-[2-(trifluoromethyl)-1H-benzimidazol-1-yl]pyrazin-2-amine] yielded an EC50 of 0.01 to 0.1 µM. Work on `CCc1nc2ccccc2n1-c1cncc(Nc2ccc(C(F)(F)F)cc2)n1` [compound 51, 6-(2-ethyl-1H-benzimidazol-1-yl)-N-[4-(trifluoromethyl)phenyl]pyrazin-2-amine] yielded an EC50 of 0.001 to 0.01 µM. Molecule `CC(C)c1nc2ccccc2n1-c1cncc(Nc2ccc(C(F)(F)F)cc2)n1` [compound 52, 6-[2-(propan-2-yl)-1H-benzimidazol-1-yl]-N-[4-(trifluoromethyl)phenyl]pyrazin-2-amine] has an EC50 of 0.01 to 0.1 µM. In the case of `CCCc1nc2ccccc2n1-c1cncc(Nc2ccc(C(F)(F)F)cc2)n1` [compound 53, 6-(2-propyl-1H-benzimidazol-1-yl)-N-[4-(trifluoromethyl)phenyl]pyrazin-2-amine], the EC50 is reported as 0.01 to 0.1 µM. In the case of `CSc1nc2ccccc2n1-c1cncc(Nc2ccc(C(F)(F)F)cc2)n1` [compound 54, 6-[2-(methylsulfanyl)-1H-benzimidazol-1-yl]-N-[4-(trifluoromethyl)phenyl]pyrazin-2-amine], the EC50 is reported as 0.01 to 0.1 µM. With `CNc1nc2ccccc2n1-c1cncc(Nc2ccc(C(F)(F)F)cc2)n1` [compound 61, N-methyl-1-(6-{[4-(trifluoromethyl)phenyl]amino}pyrazin-2-yl)-1H-benzimidazol-2-amine] the EC50 was 0.001 to 0.01 µM. `FC(F)(F)Oc1ccc(Nc2cncc(-c3c(C(F)(F)F)nn4ccccc34)n2)cc1` [compound 63, N-[4-(trifluoromethoxy)phenyl]-6-[2-(trifluoromethyl)pyrazolo[1,5-a]pyridin-3-yl]pyrazin-2-amine] showed an EC50 of 0.01 to 0.1 µM. With `COCc1nc2ccccc2n1-c1cncc(Nc2ccc(C(F)(F)F)cc2)n1` [compound 65, 6-[2-(methoxymethyl)-1H-benzimidazol-1-yl]-N-[4-(trifluoromethyl)phenyl]pyrazin-2-amine] the EC50 was 0.1 to 3 µM. Molecule `OCc1nc2ccccc2n1-c1cncc(Nc2ccc(C(F)(F)F)cc2)n1` [compound 66, [1-(6-{[4-(trifluoromethyl)phenyl]amino}pyrazin-2-yl)-1H-benzimidazol-2-yl]methanol] has an EC50 of 0.1 to 3 µM. `CSc1ccc(Nc2cncc(-c3c(C(F)(F)F)nc4ccccn34)n2)cc1` [compound 69, N-[4-(methylsulfanyl)phenyl]-6-[2-(trifluoromethyl)imidazo[1,2-a]pyridin-3-yl]pyrazin-2-amine] showed an EC50 of 0.001 to 0.01 µM. In the case of `FC(F)Oc1ccc(Nc2cncc(-c3c(C(F)(F)F)nn4ccccc34)n2)cc1` [compound 72, N-[4-(difluoromethoxy)phenyl]-6-[2-(trifluoromethyl)pyrazolo[1,5-a]pyridin-3-yl]pyrazin-2-amine], the EC50 is reported as 0.001 to 0.01 µM. `Cc1nc2ccccc2n1-c1cncc(Nc2ccc(C(F)(F)F)nc2)n1` [compound 73, 6-(2-methyl-1H-benzimidazol-1-yl)-N-[6-(trifluoromethyl)pyridin-3-yl]pyrazin-2-amine] gave an EC50 of 0.01 to 0.1 µM. `COc1ccc(Nc2cncc(-c3c(C(F)(F)F)nn4ccccc34)n2)cc1` [compound 74, N-(4-methoxyphenyl)-6-[2-(trifluoromethyl)pyrazolo[1,5-a]pyridin-3-yl]pyrazin-2-amine] gave an EC50 of under 0.001 µM.

Same assay, conditions: read-out: ELISA EC50 value for Bmi-1 protein, Table 1, Bmi-1 sandwich ELISA
`FC(F)(F)c1ccc(Nc2cncc(-c3c(C(F)(F)F)nn4ccccc34)n2)cc1` [compound 62, N-[4-(trifluoromethyl)phenyl]-6-[2-(trifluoromethyl)pyrazolo[1,5-a]pyridin-3-yl]pyrazin-2-amine] gave an EC50 of 0.01 to 0.1 µM.
